Experimental data reported in patent US9951010B2, “Compounds as CRTH2 antagonist and uses thereof” (SUNSHINE LAKE PHARMA CO., LTD., priority 2014, dated 2018).

How the values were obtained:
[1] = system: eosinophilia in airway of Wistar rats induced by DK-PGD2; experiment: Eosinophilia in airway of Wistar rats induced by DK-PGD2, cell count in BALF; format: in vivo; set-up: The total number of white blood cells: unit not given here; conditions: for Eosinophilic granulocyte C (10^5/ml) / Eosinophilic granulocyte Inhibition rate / The total number of white blood cells: Wistar rats, 10 mg/Kg preventive dose 0.5 h before DK-PGD2, BALF after 24 h; for inhibitory effects on the total number of white blood cells and the number of eosinophilic granulocytes: Wistar rats induced by DK-PGD2, compared with OC000459
Method: Purpose: evaluation of inhibitory effects of the compounds on the total number of white blood cells and eosinophilia in airway of Wistar rats induced by DK-PGD2.
Process: observation on the drug therapeutic effect through preventive medication. Specific operation: After 0.5 h of administering a preventive dose, the administered group and model group were induced eosinophilia with 100 μL of DK-PGD2 by spray injection through airway of rats, the blank group was spray injected with a corresponding dose of normal saline; after 24 h of molding, the rats were killed by bloodletting from aorta abdominalis, exposing the airway and the chest, performing the trachea cannula, and the bronchial pulmonary alveoli were lavaged with 8 mL of 1% BSA in PBS in twice, the bronchoalveolar lavage fluids (BALF) were collected and placed in an ice-bath; after smear, the cells were differential counted. The concentration of DK-PGD2 mother liquor was 10 mg/mL, which was diluted 5 folds to get 2 mg/mL.

Detection of PK in rats = format: in vivo; conditions: rat, plasma
Method: (§1) The analysis was performed using a 4000 QTRAPP series LC/MS/MS mass spectrometer equipped with Agilent 1200 dual injection pumps, 1290 automatic sampler, column oven and ESI source, detecting by the negative ion MRM mode. Waters Xbridge C18 column was used in the analysis, and the mobile phase consisted of phase (A) (2 mM ammonium formate+0.1% aqueous ammonia solution) and phase (B) (2 mM ammonium formate+0.1% ammonia methanol solution), the flow rate was 0.4 mL/min, column temperature was 40° C., the amount of injection was 3 μL.
(§2) The male Beagle dogs or rats were administered with the compound of the invention by intravenous injection (0.4 mg/Kg) and gavage (1 mg/Kg) respectively, the blood samples were collected at the time point of 0.083, 0.25, 0.5, 1, 2, 4, 6, 8, 10, 24 and 36 h and then centrifuged to obtain plasma samples. The compound concentrations in plasma samples at various times were detected by LC/MS/MS (the method described in biologic example 3), the main pharmacokinetic parameters were calculated, and pharmacokinetic properties of the compounds of the invention in Beagle dogs or rats were evaluated.

CRTH2 receptor = molecular target: T1, CRTH2 receptor (Homo sapiens, UniProt Q9Y5Y4); experiment: FLIPR detection of inhibitory activity against CRTH2 (CHO-K1/G cells, PGD2 as agonist); format: cell-based; conditions: CHO-K1/G cells with stable expression of CRTH2 receptor, PGD2 at EC80, FLIPR
T1 construct: expressed in transfected cells; host or cells: CHO-K1/G cells
T1 sequence (Q9Y5Y4 1-395): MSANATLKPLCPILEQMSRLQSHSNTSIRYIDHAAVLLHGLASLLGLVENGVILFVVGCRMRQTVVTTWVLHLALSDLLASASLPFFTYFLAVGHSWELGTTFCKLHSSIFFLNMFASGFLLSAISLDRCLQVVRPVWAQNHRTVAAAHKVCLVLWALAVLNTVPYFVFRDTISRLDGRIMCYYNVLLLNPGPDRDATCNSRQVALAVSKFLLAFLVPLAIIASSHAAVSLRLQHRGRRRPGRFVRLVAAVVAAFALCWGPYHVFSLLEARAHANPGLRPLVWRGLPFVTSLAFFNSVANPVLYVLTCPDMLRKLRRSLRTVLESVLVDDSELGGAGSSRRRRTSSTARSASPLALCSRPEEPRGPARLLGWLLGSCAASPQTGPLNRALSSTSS
Method: The test compound was weighed accurately and then dissolved in a suitable amount of DMSO to prepare a stock solution at a concentration of 10 mM; after clear and transparent, the stock solution was subpackaged and cryostoraged at −20° C. for use. Before testing, the test compound was diluted with balanced salt solution (HBSS buffer, containing 4-(2-hydroxyethyl)piperazine-1-ethanesulfonicacid) at a concentration of 20 mM) to 5 times testing concentration.
CHO-K1/G cells with stable expression of CRTH2 receptor were prepared to 5 times testing concentration and seeded into 384-microwell plate, and incubated in an incubator at 37° C./5% CO2. After incubating for 18 hours, to the cells in 384-microwell plate was added 20 μL of dye followed by the addition of 10 μL of prepared test compound solution. And then the cell plate was incubated in the incubator at 37° C./5% CO2 for 1 hour, at last which was balanced at rt for 15 min. After adding 12.5 μL of positive agonist (PGD2) at a concentration of 5 times EC80 to each well of the cell plate, the RFU (fluorescence intensity) value of the test compound was detected.
The data were recorded from ScreenWorks (version 3.1), and collected and analyzed by using Excel and GraphPad Prism 6 software to calculate the values of IC50.

[2] = system: OVA (ovalbumin)-induced asthmatic model in rats; experiment: OVA (ovalbumin)-induced asthmatic model in rats, count of white blood cells in lung lavage; format: in vivo; conditions: OVA-sensitized rats, gavage once a day for three days, lung lavage solution
Method: The experiment purpose was to assess the drug efficacy of the test compound in OVA (ovalbumin)-induced asthmatic model in rats.
Grouping the animal randomly to control group, model group and administered group. At the first, second and third day, the control group was administered with 1 mL of PBS (phosphate buffer solution) by intraperitoneal injection, and the model group and administered group were administered with a sensitization solution (prepared by mixing 6 mL of 1% OVA in phosphate buffer solution and 54 mL of alum solution at a ratio of 1:9) by intraperitoneal injection per day (1 mL per rat).
From the nineteenth day, the administered group was administered with the test compound at a certain dose by gavage, and the control group and model group was administered with the menstruum at a corresponding dose by gavage, once a day for three days. After 1 hour of administering each day, attacking the model group and administered group with 1% OVA in phosphate buffer solution and the control group with phosphate buffer solution for 20 min.
At the twenty-third day, the animals were anesthetized with 1% pentobarbital sodium (60 mg/Kg) by intraperitoneal injection. The blood samples were collected from aorta abdominalis under pentobarbital sodium anaesthesia into EDTA-K2 tubes. After tracheal intubation was performed, the lung of the animals were lavaged with 3 mL of PBS containing 1% FBS (Fetal Bovine Serum) once, and then lavaged with 5 mL of PBS containing 1% FBS at least two times; the volume of the combined lavage solutions were adjusted to 15 mL. The total cells in the lavage solution were counted by using a hemacytometer and a Trypan blue staining method and then white blood cells in the lavage solution were counted differentially.

[3] = Detection of PK in Beagle dogs; format: in vivo; conditions: male, dog, plasma
Method: as §1, §2

[4] = Metabolic stability in dog liver microsomal; format: in vitro ADME; conditions: liver microsomes, pH 7.4, 37° C.
Method: as §1
(§3) A mixture of the compound and human liver microsomal, a mixture of the compound and dog liver microsomal, or a mixture of the compound and rat liver microsomal were separately incubated at 37° C., under a condition of pH7.4. The sample concentrations at various incubative times were detected by LC/MS/MS (the method described in biologic example 3), speed constant was obtained by plotting “Log [drug concentration]” to “incubative time” in GraphPad Prism 5.01, and the drug half-life and intrinsic clearance rate were calculated; metabolic stability of the compound in liver microsomal were evaluated based on the drug half-life and intrinsic clearance rate.

[5] = Metabolic stability in human liver microsomal; format: in vitro ADME; conditions: liver microsomes, pH 7.4, 37° C.
Method: as §1, §3

[6] = Metabolic stability in rat liver microsomal; format: in vitro ADME; conditions: liver microsomes, pH 7.4, 37° C.
Method: as §1, §3

[7] = Hygroscopicity test by dynamic vapor sorption; format: physicochemical; conditions: DVS, 25° C.
Method: The hygroscopicity disclosed herein is detected on a DVS INT-Std dynamic vapor and gas absorption analyzer (England Surface Measurement Systems Company) under the humidity ranged from 0% to 95%, the airflow rate is 200 mL/min, the temperature is 25° C., and one test point is provided per rising 5% humidity.
An appropriate amount of test sample was sampled, and the hygroscopicity of the test sample was detected on a dynamic vapor sorption instrument. The experiment results are as shown in table 7; the dynamic vapor sorption profiles of the crystalline form I of the compound represented by Formula (VI) is substantial the same as shown in FIG. 19.
The hygroscopic features and definition of hygroscopic weight gain are summarized in table 8 (deriving from Chinese Pharmacopoeia 2010, appendix XIX J: Guideline on pharmaceutical hygroscopicity test, test conditions: 25° C.±1° C., Relative Humidity 80%).

[8] = pH7.4, intrinsic clearance, read-out: Clearance rate
[9] = pH7.4, read-out: Drug half-life

| SMILES | Eosinophilic granulocyte C (10^5/ml) [1] | Eosinophilic granulocyte Inhibition rate [1] [%] | The total number of white blood cells [1] | AUC(0-inf) (Detection of PK in rats; iv, 0.4 mg/Kg) [ng·h/mL] | AUC(0-t) (Detection of PK in rats; iv, 0.4 mg/Kg) [ng·h/mL] | Cmax (Detection of PK in rats; iv, 0.4 mg/Kg) [ng/mL] | half-life (Detection of PK in rats; iv, 0.4 mg/Kg) [min] | AUC(0-inf) (Detection of PK in rats; po, p.o. (gavage), 1 mg/Kg) [ng·h/mL] | AUC(0-t) (Detection of PK in rats; po, p.o. (gavage), 1 mg/Kg) [ng·h/mL] | Cmax (Detection of PK in rats; po, p.o. (gavage), 1 mg/Kg) [ng/mL] | half-life (Detection of PK in rats; po, p.o. (gavage), 1 mg/Kg) [min] | IC50 (CRTH2 receptor) [nM] | Eosinophilic granulocyte Inhibition ratio [2] [%] | Eosinophilic granulocyte Number (×10^5/mL) [2] | Total number of white cells (×10^5/mL) [2] | inhibitory effects on the total number of white blood cells and the number of eosinophilic granulocytes [1] | further results |
| --- | --- | --- | --- | --- | --- | --- | --- | --- | --- | --- | --- | --- | --- | --- | --- | --- | --- |
| Cc1c(Cc2ccc3ccccc3n2)c2cc(F)ccc2n1CC(=O)O [OC000459, reference compound] | 0.1192 ± 0.03^## 10^5/ml | 70.77 | 2.427 ± 0.25 |  |  |  |  |  |  |  |  |  |  |  |  |  |  |
| Cc1c(C2CCC(NS(=O)(=O)c3ccc(F)cc3)CC2)c2cc(F)ccc2n1CC(=O)O (single isomer, unassigned) [Example 27b, 2-(5-fluoro-3-(4-(4-fluorophenylsulfonamido)cyclohexyl)-2-methyl-1H-indol-1-yl)acetic acid] | 0.09597 ± 0.04^## 10^5/ml | 76.76 | 1.986 ± 0.28 | 920 | 883 | 802 | 94.8 | 1640 | 1600 | 631 | 79.8 | 57.3 | 38.55 | 142.17 ×10^5/mL | 277.800 ×10^5/mL | stronger than those of OC000459 |  |
| Cc1c(C2CCN(S(=O)(=O)c3ccc(F)cc3F)CC2)c2cc(F)ccc2n1CC(=O)O [Example 33, 2-(5-fluoro-3-(1-((2,4-difluorophenyl)sulfonyl)piperidin-4-yl)-2-methyl-1H-indol-1-yl)acetic acid] |  |  |  | 2500 | 2440 | 1300 | 270 | 4270 | 4090 | 1960 | 271 | 80.4 |  |  |  |  |  |
| Cc1c(C2CCC(NC(=O)c3ccc4ccccc4n3)CC2)c2cc(F)ccc2n1CC(=O)O.Cl (single isomer, unassigned) [Example 6a, 2-(5-fluoro-2-methyl-3-(4-(quinoline-2-carboxamido)cyclohexyl)-1H-indol-1-yl)acetic acid hydrochloride] | 0.0568 ± 0.02^## 10^5/ml | 86.85 | 1.634 ± 0.30 | 2780 | 2680 | 2020 | 94.2 | 5940 | 5670 | 2110 | 172 | 200 | 33 | 153.75 ×10^5/mL | 247.350 ×10^5/mL | stronger than those of OC000459 |  |
| Cc1c(C2CCN(S(=O)(=O)c3ccc(F)cc3)CC2)c2cc(F)ccc2n1CC(=O)O [Example 24, 2-(5-fluoro-3-(1-((4-fluorophenyl)sulfonyl)piperidin-4-yl)-2-methyl-1H-indol-1-yl)acetic acid] | 0.0804 ± 0.02^## 10^5/ml | 80.77 | 1.881 ± 0.26 | 1030 | 991 | 757 | 204 | 1890 | 1710 | 393 | 262 | 148 | 36.8 | 145.82 ×10^5/mL | 272.775 ×10^5/mL | stronger than those of OC000459 | AUC(0-inf) ([3]; iv, 0.4 mg/Kg): 5500 ng·h/mL; AUC(0-t) ([3]; iv, 0.4 mg/Kg): 5400 ng·h/mL; Cmax ([3]; iv, 0.4 mg/Kg): 3210 ng/mL; half-life ([3]; iv, 0.4 mg/Kg): 283 min; AUC(0-inf) ([3]; po, p.o. (gavage), 1 mg/Kg): 6920 ng·h/mL; AUC(0-t) ([3]; po, p.o. (gavage), 1 mg/Kg): 6600 ng·h/mL; Cmax ([3]; po, p.o. (gavage), 1 mg/Kg): 1160 ng/mL; half-life ([3]; po, p.o. (gavage), 1 mg/Kg): 648 min; CLint scaled [4, 8]: 1.37 mL/min/kg; half-life [4, 9]: 2520 min; CLint scaled [5, 8]: 2.55 mL/min/kg; half-life [5, 9]: 682 min; CLint scaled [6, 8]: 13.8 mL/min/kg; half-life [6, 9]: 180 min |
| Cc1c(C2CCN(S(=O)(=O)c3ccc(F)cc3)CC2)c2cc(F)ccc2n1CC(=O)O [Crystalline form I, 2-(5-fluoro-3-(1-((4-fluorophenyl)sulfonyl)piperidin-4-yl)-2-methyl-1H-indol-1-yl)acetic acid] |  |  |  |  |  |  |  |  |  |  |  |  |  |  |  |  | Weigh increase rate % under RH 80% ([7]; RH 80%): 0.293%; Weigh increase rate % under RH 95% ([7]; RH 95%): 0.499% |
